In PubChem BioAssay (NCI):
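Following 48 hours of exposure in 96-well plates, responses at five concentrations were used to interpolate endpoints linearly. GI50: concentration for 50% inhibition of growth. TGI: concentration producing complete growth inhibition.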

Tests used:
Assay in all cases: NCI tumour cell line growth inhibition, 48 h
LXFL 529 NSCLC = tested on: LXFL 529 NSCLC
SNB-78 CNS = tested on: SNB-78 CNS
DMS 114 small cell lung = tested on: DMS 114 small cell lung
XF 498 CNS = tested on: XF 498 CNS
M19-MEL melanoma = tested on: M19-MEL melanoma
RXF-631 renal = tested on: RXF-631 renal
KM20L2 colon = tested on: KM20L2 colon
MDA-N = tested on: MDA-N
HOP-18 NSCLC = tested on: HOP-18 NSCLC

Row | SMILES | TGI (LXFL 529 NSCLC) | TGI (SNB-78 CNS) | TGI (DMS 114 small cell lung) | TGI (M19-MEL melanoma) | TGI (RXF-631 renal) | TGI (KM20L2 colon) | TGI (MDA-N) | TGI (HOP-18 NSCLC) | further results
1 | CC(=O)/C=C1\CC(=O)N(C)c2ccccc2N1 | > 100 µM | > 100 µM | 64.3 µM | > 100 µM | – | – | – | – | TGI (XF 498 CNS): > 100 µM
2 | CCCCC[C@@H]1CCCC2NC(CCCCCO[Si](c3ccccc3)(c3ccccc3)C(C)(C)C)CCC21 (some centres not stated) | – | 30.2 µM | 28.1 µM | 31.8 µM | 27.7 µM | 23.8 µM | – | – | –
3 | O=C1c2ccccc2C(=O)N1c1ccc(Cc2ccc(N3C(=O)c4ccccc4C3=O)cc2)cc1 | – | – | – | – | – | – | > 100 µM | – | –
4 | N.N.N.N.N#N.N#N.[Cl-].[Os+6] | > 100 µM | > 100 µM | – | – | – | > 100 µM | – | > 100 µM | GI50 (LXFL 529 NSCLC): > 100 µM; GI50 (SNB-78 CNS): > 100 µM; GI50 (KM20L2 colon): > 100 µM; GI50 (HOP-18 NSCLC): 23.1 µM
5 | COc1ccc([N+](=O)[O-])c2c(NCCCN(C)C)c(C)c(C)nc12 | – | – | – | – | – | – | > 100 µM | – | –
6 | O=C(O)c1cccc([As]=[As]c2cccc(C(=O)O)c2)c1 (configuration not stated) | – | – | – | – | – | – | > 100 µM | – | –
7 | O=C(n1c2ccccc2c2n[nH]c(=S)nc21)C(F)(F)F | > 100 µM | > 100 µM | > 100 µM | > 100 µM | – | – | – | – | TGI (XF 498 CNS): > 100 µM
8 | CC(C)(C)c1cc(C2c3cc4c(cc3OC(O)(CO)C2C(=O)O)OCO4)cc(C(C)(C)C)c1O (configuration not stated) (tested in a mixture with another compound) | – | – | 23.8 µM | 28.6 µM | 43.3 µM | 33.4 µM | – | 20.3 µM | –
9 | O=C(c1ccc(Cl)cc1Cl)N1CCN(C(=O)c2ccc(Cl)cc2Cl)C1=S | – | – | – | – | – | – | 43.8 µM | – | GI50 (MDA-N): 20 µM
10 | Cc1nc2ccccc2c(=O)n1/N=C(\N=Nc1ccc(Cl)cc1)c1cccc(-c2ccco2)c1 | > 100 µM | – | – | > 100 µM | – | > 100 µM | – | > 100 µM | –
11 | O=C(CC1(O)C(=O)Nc2ccccc21)c1ccc(Cl)c(Cl)c1 (configuration not stated) | > 100 µM | > 100 µM | > 100 µM | > 100 µM | – | > 100 µM | – | – | –
12 | O=CNC(Cc1cnc[nH]1)C(=O)O (configuration not stated) | – | – | – | – | – | – | > 100 µM | – | –
13 | O=C1c2ccccc2C(=O)c2c1ccc1conc21 | 3.83 µM | 10.3 µM | 3.42 µM | 3.09 µM | > 26.5 µM | 28.8 µM | 1.41 µM | 26.2 µM | –
14 | C=C1C(=O)OC2CC1C(OC(=O)/C=C/c1ccccc1)C/C(C)=C/CC/C(C)=C/CCC2(C)O (configuration not stated) | – | – | – | – | – | – | 2.67 µM | – | –
15 | O=C(O)CCC(O)=C1S(=O)(=O)OCCOS1(=O)=O | > 100 µM | > 100 µM | > 100 µM | > 100 µM | – | > 100 µM | > 100 µM | > 100 µM | –
16 | Cc1cc(NS(=O)(=O)c2ccc(NC(=O)c3ccc(Cl)c4c(Nc5ccc(S(=O)(=O)Nc6cc(C)on6)cc5)c5ccccc5nc34)cc2)no1 | 48.5 µM | 84.1 µM | 42.5 µM | 50.3 µM | – | 40 µM | – | 30.4 µM | TGI (XF 498 CNS): 75.9 µM
17 | CC1(Cl)C(=O)NC(=O)N([C@H]2C[C@H](O)[C@@H](CO)O2)C1N=[N+]=[N-] (some centres not stated) | > 100 µM | > 100 µM | > 100 µM | > 100 µM | > 100 µM | > 100 µM | – | > 100 µM | TGI (XF 498 CNS): > 100 µM
18 | Cc1nc(-n2nc(-c3ccccc3)cc2-c2ccccc2)sc1C(=O)CC(=O)C(=O)Nc1ccc(Cl)c(Cl)c1 | > 100 µM | > 100 µM | > 100 µM | > 100 µM | > 100 µM | > 100 µM | – | > 100 µM | –
19 | CC(=O)CC[N+](C)(C)C | 27.2 µM | 19.7 µM | – | > 58.2 µM | > 100 µM | > 56.6 µM | > 100 µM | 30.5 µM | –
20 | COc1ccc2nc3cc(Cl)ccc3c(Sc3ccc(N)cc3)c2c1 | 16 µM | 34 µM | 19 µM | 20.2 µM | 34.4 µM | 17.9 µM | – | 25.3 µM | TGI (XF 498 CNS): 27.5 µM
21 | Cn1c(=O)nc2n(-c3ccc(Br)cc3)c3ccccc3nc-2c1=O | 25.4 µM | 35.1 µM | 4.39 µM | 2.93 µM | 29.8 µM | 8.74 µM | – | 18.8 µM | TGI (XF 498 CNS): 25 µM
22 | CC(=O)c1cc2c(Br)cccc2oc1=O | – | – | – | – | – | – | > 100 µM | – | –
23 | Nc1n[n+]([O-])c2ccc(Cl)cc2[n+]1[O-] | – | – | – | – | – | – | 73.5 µM | – | –
24 | Cc1c(C)c2cc3c(=O)c(CCl)coc3c(C)c2oc1=O | > 100 µM | > 100 µM | > 100 µM | > 100 µM | > 100 µM | > 100 µM | – | > 100 µM | –
25 | COC(=O)NC1(NC(=O)OC)NC(=O)c2ccccc2N1 | – | – | – | – | – | – | > 100 µM | – | –
26 | O=C1NC(c2ccccc2)(c2ccccc2)C(=O)N1CCCCCCN1C(=O)NC(c2ccccc2)(c2ccccc2)C1=O | > 100 µM | > 100 µM | > 100 µM | > 100 µM | – | > 100 µM | – | > 100 µM | TGI (XF 498 CNS): 30.9 µM
27 | O=C1OC(c2ccc([N+](=O)[O-])cc2)=N/C1=C\c1ccc(Cl)cc1 | – | – | – | – | – | – | > 100 µM | – | –
